From US9738634B2, “Heterocyclic amide compound and herbicide” (SYNGENTA PARTICIPATIONS AG, priority 2013, dated 2017)

Tests used:
Assay type in all cases: in vivo
barnyard grass [1] = test: Test Example 3: weedkilling efficacy through soil treatment; F: barnyard grass; details: soil treatment
How it was run: (§1)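 Crop and weed responses were judged three weeks after a uniform surface spray of the water-diluted emulsion at the given g/ha rate. Seeds sat beneath about 1.5 cm of sterilized diluvial soil, and boxes stood in a greenhouse at 25 to 30° C.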

fig-leafed goosefoot = test: Test Example 3: weedkilling efficacy through soil treatment; M: fig-leafed goosefoot; details: soil treatment
How it was run: as §1

birds-eye speedwell = test: Test Example 3: weedkilling efficacy through soil treatment; p: birds-eye speedwell; details: soil treatment
How it was run: as §1

rapeseed = test: Test Example 3: soil treatment, effect on crop; g: rapeseed; details: soil treatment
How it was run: as §1

catchweed = test: Test Example 3: weedkilling efficacy through soil treatment; O: catchweed; details: soil treatment
How it was run: as §1

barnyard grass [2] = test: Test Example 2: weedkilling efficacy, growth period weed treatment in the submerged state; A: barnyard grass; details: treatment dosage 320 g/ha
How it was run: (§2)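 Weeds treated at the 1-2 leaf stage by application of diluted emulsion onto floodwater (4 cm depth, alluvial soil) at specified g/ha. Grown in greenhouse at 25 to 30° C; herbicidal effect rated three weeks after treatment.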

common wind-grass = test: Test Example 3: weedkilling efficacy through soil treatment; J: common wind-grass; details: soil treatment
How it was run: as §1

oval-leafed pondweed [3] = test: Test Example 1: weedkilling efficacy, preemergent weed treatment in the submerged state; C: oval-leafed pondweed; details: treatment dosage 320 g/ha
How it was run: (§3)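 Pots of alluvial soil were flooded to a 4 cm depth. Mixed weed seeds were sown and 2.5 leaf-stage rice seedlings transplanted. On sowing day, water-diluted emulsion was applied to the water surface (dose in g/ha). After 3 weeks at 25–30 °C, effects were rated.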

oval-leafed pondweed [4] = test: Test Example 2: weedkilling efficacy, growth period weed treatment in the submerged state; C: oval-leafed pondweed; details: treatment dosage 320 g/ha
How it was run: as §2

Indian mallow = test: Test Example 3: weedkilling efficacy through soil treatment; K: Indian mallow; details: soil treatment
How it was run: as §1

bulrush [5] = test: Test Example 2: weedkilling efficacy, growth period weed treatment in the submerged state; B: bulrush; details: treatment dosage 320 g/ha
How it was run: as §2

soybean = test: Test Example 3: soil treatment, effect on crop; d: soybean; details: soil treatment
How it was run: as §1

beet = test: Test Example 3: soil treatment, effect on crop; f: beet; details: soil treatment
How it was run: as §1

Italian ryegrass = test: Test Example 3: weedkilling efficacy through soil treatment; I: Italian ryegrass; details: soil treatment
How it was run: as §1

crabgrass = test: Test Example 3: weedkilling efficacy through soil treatment; D: crabgrass; details: soil treatment
How it was run: as §1

wild oat = test: Test Example 3: weedkilling efficacy through soil treatment; G: wild oat; details: soil treatment
How it was run: as §1

bulrush [6] = test: Test Example 1: weedkilling efficacy, preemergent weed treatment in the submerged state; B: bulrush; details: treatment dosage 320 g/ha
How it was run: as §3

black-grass = test: Test Example 3: weedkilling efficacy through soil treatment; H: black-grass; details: soil treatment
How it was run: as §1

chickweed = test: Test Example 3: weedkilling efficacy through soil treatment; N: chickweed; details: soil treatment
How it was run: as §1

redroot pigweed = test: Test Example 3: weedkilling efficacy through soil treatment; L: redroot pigweed; details: soil treatment
How it was run: as §1

corn = test: Test Example 3: soil treatment, effect on crop; c: corn; details: soil treatment
How it was run: as §1

wheat = test: Test Example 3: soil treatment, effect on crop; e: wheat; details: soil treatment
How it was run: as §1

transplanted rice = test: Test Example 1: preemergent weed treatment in the submerged state, effect on crop; a: transplanted rice; details: treatment dosage 320 g/ha
How it was run: as §3

barnyard grass [7] = test: Test Example 1: weedkilling efficacy, preemergent weed treatment in the submerged state; A: barnyard grass; details: treatment dosage 320 g/ha
How it was run: as §3

green foxtail = test: Test Example 3: weedkilling efficacy through soil treatment; E: green foxtail; details: soil treatment
How it was run: as §1

directly sown rice = test: Test Example 3: soil treatment, effect on crop; b: directly sown rice; details: soil treatment
How it was run: as §1

Structure (SMILES) | F: barnyard grass, weedkilling efficacy grade (barnyard grass [1]; treatment dosage 320 g/ha) | M: fig-leafed goosefoot, weedkilling efficacy grade (fig-leafed goosefoot; treatment dosage 320 g/ha) | P: birds-eye speedwell, weedkilling efficacy grade (birds-eye speedwell; treatment dosage 320 g/ha) | g: rapeseed, effect on crop grade (rapeseed; treatment dosage 320 g/ha) | O: catchweed, weedkilling efficacy grade (catchweed; treatment dosage 320 g/ha) | A (barnyard grass) weedkilling efficacy grade (barnyard grass [2]) | J: common wind-grass, weedkilling efficacy grade (common wind-grass; treatment dosage 320 g/ha) | C: oval-leafed pondweed, weed kill grade (oval-leafed pondweed [3]) | C (oval-leafed pondweed) weedkilling efficacy grade (oval-leafed pondweed [4]) | K: Indian mallow, weedkilling efficacy grade (Indian mallow; treatment dosage 320 g/ha) | B (bulrush) weedkilling efficacy grade (bulrush [5]) | d: soybean, effect on crop grade (soybean; treatment dosage 320 g/ha) | f: beet, effect on crop grade (beet; treatment dosage 320 g/ha) | I: Italian ryegrass, weedkilling efficacy grade (Italian ryegrass; treatment dosage 320 g/ha) | D: crabgrass, weedkilling efficacy grade (crabgrass; treatment dosage 320 g/ha) | G: wild oat, weedkilling efficacy grade (wild oat; treatment dosage 320 g/ha) | B: bulrush, weed kill grade (bulrush [6]) | H: black-grass, weedkilling efficacy grade (black-grass; treatment dosage 320 g/ha) | N: chickweed, weedkilling efficacy grade (chickweed; treatment dosage 320 g/ha) | L: redroot pigweed, weedkilling efficacy grade (redroot pigweed; treatment dosage 320 g/ha) | further results
CC(C)(C(=O)Nc1ccn(C(F)F)n1)N1COCN(c2ccccc2)C1=O [A-1-04] | 2 (weed kill ratio 20% or more, less than 40%) | 3 (weed kill ratio 40% or more, less than 70%) | 3 (weed kill ratio 40% or more, less than 70%) | 4 (weed kill ratio 70% or more, less than 90%) | 2 (weed kill ratio 20% or more, less than 40%) | 3 (weed kill ratio 40% or more, less than 70%) | 5 (weed kill ratio 90% or more, (practically complete withering)) | 4 (weed kill ratio 70% or more, less than 90%) | 4 (weed kill ratio 70% or more, less than 90%) | 0 (weed kill ratio 5% or less (practically no effect)) | 4 (weed kill ratio 70% or more, less than 90%) | 2 (weed kill ratio 20% or more, less than 40%) | 3 (weed kill ratio 40% or more, less than 70%) | 5 (weed kill ratio 90% or more, (practically complete withering)) | 3 (weed kill ratio 40% or more, less than 70%) | 2 (weed kill ratio 20% or more, less than 40%) | 5 (weed kill ratio 90% or more, (practically complete withering)) | 4 (weed kill ratio 70% or more, less than 90%) | 4 (weed kill ratio 70% or more, less than 90%) | 0 (weed kill ratio 5% or less (practically no effect)) | c: corn, effect on crop grade (corn; treatment dosage 320 g/ha): 0 (weed kill ratio 5% or less (practically no effect)); e: wheat, effect on crop grade (wheat; treatment dosage 320 g/ha): 0 (weed kill ratio 5% or less (practically no effect)); a: transplanted rice, effect on crop grade (transplanted rice): 0 (weed kill ratio 5% or less (practically no effect)); A: barnyard grass, weed kill grade (barnyard grass [7]): 5 (weed kill ratio 90% or more, (practically complete withering)); E: green foxtail, weedkilling efficacy grade (green foxtail; treatment dosage 320 g/ha): 3 (weed kill ratio 40% or more, less than 70%); b: directly sown rice, effect on crop grade (directly sown rice; treatment dosage 320 g/ha): 0 (weed kill ratio 5% or less (practically no effect))
Cc1nnc(NC(=O)C(C)(C)N2COCN(c3ccccc3)C2=O)s1 [A-1-13] | 3 (weed kill ratio 40% or more, less than 70%) | 3 (weed kill ratio 40% or more, less than 70%) | 4 (weed kill ratio 70% or more, less than 90%) | 4 (weed kill ratio 70% or more, less than 90%) | 0 (weed kill ratio 5% or less (practically no effect)) | 3 (weed kill ratio 40% or more, less than 70%) | 5 (weed kill ratio 90% or more, (practically complete withering)) | 5 (weed kill ratio 90% or more, (practically complete withering)) | 3 (weed kill ratio 40% or more, less than 70%) | 0 (weed kill ratio 5% or less (practically no effect)) | 5 (weed kill ratio 90% or more, (practically complete withering)) | 0 (weed kill ratio 5% or less (practically no effect)) | 1 (weed kill ratio 5% or more, less than 20%) | 5 (weed kill ratio 90% or more, (practically complete withering)) | 3 (weed kill ratio 40% or more, less than 70%) | 3 (weed kill ratio 40% or more, less than 70%) | 5 (weed kill ratio 90% or more, (practically complete withering)) | 5 (weed kill ratio 90% or more, (practically complete withering)) | 3 (weed kill ratio 40% or more, less than 70%) | 0 (weed kill ratio 5% or less (practically no effect)) | c: corn, effect on crop grade (corn; treatment dosage 320 g/ha): 0 (weed kill ratio 5% or less (practically no effect)); e: wheat, effect on crop grade (wheat; treatment dosage 320 g/ha): 1 (weed kill ratio 5% or more, less than 20%); a: transplanted rice, effect on crop grade (transplanted rice): 3 (weed kill ratio 40% or more, less than 70%); A: barnyard grass, weed kill grade (barnyard grass [7]): 5 (weed kill ratio 90% or more, (practically complete withering)); E: green foxtail, weedkilling efficacy grade (green foxtail; treatment dosage 320 g/ha): 3 (weed kill ratio 40% or more, less than 70%); b: directly sown rice, effect on crop grade (directly sown rice; treatment dosage 320 g/ha): 3 (weed kill ratio 40% or more, less than 70%)
CC(C)(C(=O)Nc1cc(Cl)cc(C2CC2)n1)N1COCN(c2ccccc2)C1=O [A-2-29] |  |  |  |  |  |  |  |  |  |  |  |  |  |  |  |  |  |  |  |  | F: barnyard grass, weedkilling efficacy grade (barnyard grass [1]; treatment dosage 230 g/ha): 5 (weed kill ratio 90% or more, (practically complete withering)); M: fig-leafed goosefoot, weedkilling efficacy grade (fig-leafed goosefoot; treatment dosage 230 g/ha): 3 (weed kill ratio 40% or more, less than 70%); P: birds-eye speedwell, weedkilling efficacy grade (birds-eye speedwell; treatment dosage 230 g/ha): 5 (weed kill ratio 90% or more, (practically complete withering)); g: rapeseed, effect on crop grade (rapeseed; treatment dosage 230 g/ha): 4 (weed kill ratio 70% or more, less than 90%); O: catchweed, weedkilling efficacy grade (catchweed; treatment dosage 230 g/ha): 3 (weed kill ratio 40% or more, less than 70%); J: common wind-grass, weedkilling efficacy grade (common wind-grass; treatment dosage 230 g/ha): 5 (weed kill ratio 90% or more, (practically complete withering)); K: Indian mallow, weedkilling efficacy grade (Indian mallow; treatment dosage 230 g/ha): 3 (weed kill ratio 40% or more, less than 70%); d: soybean, effect on crop grade (soybean; treatment dosage 230 g/ha): 0 (weed kill ratio 5% or less (practically no effect)); f: beet, effect on crop grade (beet; treatment dosage 230 g/ha): 3 (weed kill ratio 40% or more, less than 70%); I: Italian ryegrass, weedkilling efficacy grade (Italian ryegrass; treatment dosage 230 g/ha): 5 (weed kill ratio 90% or more, (practically complete withering)); D: crabgrass, weedkilling efficacy grade (crabgrass; treatment dosage 230 g/ha): 5 (weed kill ratio 90% or more, (practically complete withering)); G: wild oat, weedkilling efficacy grade (wild oat; treatment dosage 230 g/ha): 3 (weed kill ratio 40% or more, less than 70%); H: black-grass, weedkilling efficacy grade (black-grass; treatment dosage 230 g/ha): 5 (weed kill ratio 90% or more, (practically complete withering)); N: chickweed, weedkilling efficacy grade (chickweed; treatment dosage 230 g/ha): 4 (weed kill ratio 70% or more, less than 90%); L: redroot pigweed, weedkilling efficacy grade (redroot pigweed; treatment dosage 230 g/ha): 2 (weed kill ratio 20% or more, less than 40%); c: corn, effect on crop grade (corn; treatment dosage 230 g/ha): 1 (weed kill ratio 5% or more, less than 20%); e: wheat, effect on crop grade (wheat; treatment dosage 230 g/ha): 0 (weed kill ratio 5% or less (practically no effect)); E: green foxtail, weedkilling efficacy grade (green foxtail; treatment dosage 230 g/ha): 5 (weed kill ratio 90% or more, (practically complete withering)); b: directly sown rice, effect on crop grade (directly sown rice; treatment dosage 230 g/ha): 1 (weed kill ratio 5% or more, less than 20%)
